Assay results published in patent publication US20250170212A1, “COMPOSITIONS AND METHODS OF TREATING AMYOTROPHIC LATERAL SCLEROSIS (ALS) AND RELATED DISORDERS” (BIOINCEPT, LLC, priority 2022, published 2025).

What was measured:
[1] = system: Iba1+ cells (microglial activation); experiment: Immunohistochemistry of microglial cells in brainstem motor nuclei; assay type: in vivo, mouse; conditions: facial and hypoglossal motor nuclei; compared to Injury
Method: (§1) At the end of experiment, mice were subjected to full body perfusion with 20% sucrose and 10% buffered formalin suitable for histology assays (Sigma Aldrich, St.Louis, MO, USA). Mice were decapitated and incubated in formalin for 24 h. Following the tissues (brain and spinal cord) were isolated, paraffin fixed for further analyses. After brain removal, the tissue was fixed in a formaldehyde solution (4%) for 2-4 hours at RT followed by 4° C. for a total time of 24-48 hours. Fixed tissues were embedded in paraffin and finally sectioned into 7 μm slices. […]
(§2) Assessment of neuronal and microglial positive cells were performed in the region of interest (ROI). […] The images were analyzed and reconstructed using Image J (US National Institutes of Health).
(§3) All quantifications were performed including the manual cell counts in a blinded manner. The NeuN and Ibal were counted as positive cells in the ROI (see above) as previously reported. The number of cells was determined by unbiased counting of positive cells. […] Differences between groups were analyzed using a repeated measure ANOVA model with a fixed effect for the group, of the time and a random intercept for the mouse. In a second, more explorative, approach for each group the time when the physical activity was first measured below a certain threshold was determined. […]

IL-12 = experiment: Serum cytokine analysis, multiplex ELISA; assay type: in vivo, mouse; conditions: serum collected weekly; compared to other groups
Method: (§4) Samples were collected every week, starting from day of graft transplantation (day 0), 100 μl of blood from mouse tail. Blood was stored 1 h in room temperature, and overnight in +4° C. Serum was gently aspirated, and centrifuged 10 min with 2000 RPM to separate blood morphotic bodies. Purified serum was stored in −80° C. until further analysis. Multiplex ELISA 23-cytokine kit (M60009RDPD) was obtained from Bio-Rad (Bio-Plex Pro Mouse Cytokine 23-plex Assay #M60009RDPD, Hercules, Bio-Rad, CA, USA, RRID: AB_2857368) and performed according to instructions. 50 μl of diluted in sample diluent, 1:4 serum samples and diluted at range 1:10-1:20. Measurement standards were used, diluted 9 times according to the protocol and added at template plate. Vortexed beads were added to the assay 96-well plate. Plate was again washed 3 times with wash buffer, then from template plate, 50 μl of samples, standards and blank were transferred to measurement plate with multichannel pipette. Plate was sealed with tape and incubated 30 min. After this time, plate was washed 3 times. 25 μl of detection antibody was added to the wells with multichannel pipette. Plate was sealed and incubated for 30 min. and next washed 3 times using wash buffer. […] Beads were resuspended with 125 μl of assay buffer and analysis was performed with Bio Plex 200 reader.
(§5) All quantifications were performed including the manual cell counts in a blinded manner. The NeuN and Ibal were counted as positive cells in the ROI (see above) as previously reported. The number of cells was determined by unbiased counting of positive cells. […] Differences between groups were analyzed using a repeated measure ANOVA model with a fixed effect for the group, of the time and a random intercept for the mouse. In a second, more explorative, approach for each group the time when the physical activity was first measured below a certain threshold was determined. […] The clinically relevant threshold was determined according to previous observations and defined as value 0.9 for the Wire Test. […] The statistical significance at p<0.05 was then determined.

IL-1α = experiment: Serum cytokine analysis, multiplex ELISA; assay type: in vivo, mouse; conditions: serum collected weekly; compared to Injury and mGRPs groups
Method: as §4, §5

immature brain injury = conditions: murine model of immature brain injury; cited from earlier work
[2] = system: NeuN positive cells (mature neurons); experiment: Immunohistochemistry of mature neurons in brainstem motor nuclei; assay type: in vivo, mouse; conditions: facial and hypoglossal motor nuclei; compared to Injury
Method: as §1, §2, §3

MVRIKPGSANKPSDD [sPIF]
number of Iba1+ microglial cells (neuroinflammation) [1]: significant prevention of neuroinflammation
peripheral IL-12 cytokine level (IL-12): plateaued at day 28
peripheral IL-1α cytokine peak (IL-1α): decreased IL-1α peak significantly
neuronal loss and microglial activation (immature brain injury): mitigate neuronal loss and microglial activation
number of mature neurons (NeuN positive cells) [2]: significant protection of neuronal cells
